The results in this text go back to patent US8518945B2, “Pyrrolopyrazine kinase inhibitors” (Hoffmann-La Roche Inc., priority 2010, dated 2013).

The target of the assay is T1, h-jak3(810-1124) (JAK3: Recombinant human kinase domain) (Homo sapiens, UniProt P52333).
T1 construct: jak3(810- 1124)-sf9-c; made in house; host or cells: Sf9
The assay can be described thus: Determination of IC50 of Janus Kinase (JAK) inhibition: JAK3 radioactive end-point 33P-ATP kinase assay. The class given is biochemical. As to conditions: no additive; ATP 1.5 uM, peptide 50 uM, 20 minutes, room temperature; read-out: Ic50 h-jak3(810-1124)-sf9-c: no additive.

SMILES strings stand for the structures.

T1 sequence (P52333 810-1124): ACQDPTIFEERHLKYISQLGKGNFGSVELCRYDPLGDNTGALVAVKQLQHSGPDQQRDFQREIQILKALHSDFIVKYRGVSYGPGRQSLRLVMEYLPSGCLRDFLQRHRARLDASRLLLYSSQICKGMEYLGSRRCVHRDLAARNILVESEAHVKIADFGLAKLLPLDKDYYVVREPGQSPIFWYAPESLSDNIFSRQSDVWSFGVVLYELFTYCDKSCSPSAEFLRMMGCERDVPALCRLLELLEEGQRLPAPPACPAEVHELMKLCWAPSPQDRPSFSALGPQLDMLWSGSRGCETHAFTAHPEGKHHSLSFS
From the text: Determination of IC50 of Janus Kinase (JAK) Inhibition:
Enzymes and peptide substrate used are described below: • JAK1: Recombinant human kinase domain from Invitrogen (Cat # PV4774) • JAK3: Recombinant human kinase domain from Millipore (Cat # 14-629) or prepared. • JAK2: Recombinant human kinase domain from Millipore (Cat # 14-640) • Substrate: N-terminally biotinylated 14-mer peptide derived from activation loop of JAK1 with sequence of the peptide substrate: Biotin-[sequence]
Assay conditions— used are described below: • Assay Buffer: JAK Kinase Buffer: 50 mM Hepes [pH 7.2], 10 mM MgCl2, 1 mM DTT, 1 mg/ml BSA. The assay was carried out in this buffer. • Assay Format The kinase activity of all three JAK kinases was measured using a radioactive, end-point assay and with trace amounts of ^33P-ATP. The assays were carried out in 96-well polypropylene plates. Experimental Method:
All concentrations were final in the reaction mixture and all incubations were carried at room temperature. […] Final concentration of DMSO in the reaction was 10%. • 2) Compounds were preincubated with enzyme (0.5 nM JAK3 (commercially available), 0.2 nM JAK3 (prepared), 1 nM JAK2, 5 nM JAK1) for 10 minutes. • 3) Reactions were initiated by the addition of a cocktail of the two substrates (ATP and peptide premixed in the JAK Kinase Buffer). In the JAK2/JAK3 assays, ATP and the peptide were used at concentrations of 1.5 uM and 50 uM, respectively. JAK1 assay was carried out at an ATP concentration of 10 uM and a peptide concentration of 50 uM. • 4) The duration of the assay for JAK2 and JAK3 is 20 minutes. JAK1 assay was carried out for 40 minutes. With all three enzymes, reactions were terminated by the addition of 0.5M EDTA to a final concentration of 100 mM. • 5) 25 ul of terminated reactions were transferred to 150 ul of a 7.5% (v/v) slurry of streptavidin-coated sepharose beads in MgCl2- and CaCl2-free 1× Phosphate Buffered Saline containing 50 mM of EDTA in 96-well, 1.2 um MultiScreen-BV filter plates. • 6) After a 30-minute incubation, the beads were washed under vacuum with the following buffers: • a. 3 to 4 washes with 200 ul of 2M NaCl. • b. 3 to 4 washes with 200 ul of 2M NaCl plus 1% (v/v) phosphoric acid. • c. 1 wash with water. • 7) Washed plates were dried in a 60° C. oven for between 1 to 2 hours. • 8) 70 ul of Microscint 20 scintillation fluid was added to each well of filter plates and after at least 30 minutes of incubation, radioactive counts were measured in a Perkinelmer microplate scintillation counter.

For the compound `CC(C)(C)[C@@H](NC(=O)c1c[nH]c2ncc(C3CC3)nc12)C(=O)N1CCC(C(F)(F)F)CC1` [Example I-58, 2-Cyclopropyl-5H-pyrrolo[2,3-b]pyrazine-7-carboxylic acid [(R)-2,2-dimethyl-1-(4-trifluoromethyl-piperidine-1-carbonyl)-propyl]-amide], the IC50 came out at 0.49 nM.
Consider `CCn1cc(-c2cnc3[nH]cc(C(=O)N[C@@H](C(=O)N4CCC(C#N)CC4)C4CC4)c3n2)cn1` [Example I-71, 2-(1-Ethyl-1H-pyrazol-4-yl)-5H-pyrrolo[2,3-b]pyrazine-7-carboxylic acid [(R)-2-(4-cyano-piperidin-1-yl)-1-cyclopropyl-2-oxo-ethyl]-amide], for which the IC50 worked out at 3.92 nM.
For `N#CC1CCN(C(=O)[C@@H](CC2CC2)NC(=O)c2c[nH]c3ncc(C4CC4)nc23)CC1` [Example I-116, 2-Cyclopropyl-5H-pyrrolo[2,3-b]pyrazine-7-carboxylic acid [(R)-2-(4-cyano-piperidin-1-yl)-1-cyclopropylmethyl-2-oxo-ethyl]-amide] the value was 2.73 nM; for `CC(C)(C)[C@@H](NC(=O)c1c[nH]c2ncc(-c3cnn(-c4ccc(F)cc4)c3)nc12)C(=O)N1CCC(C#N)CC1` [Example I-117, 2-[1-(4-Fluoro-phenyl)-1H-pyrazol-4-yl]-5H-pyrrolo[2,3-b]pyrazine-7-carboxylic acid [(R)-1-(4-cyano-piperidine-1-carbonyl)-2,2-dimethyl-propyl]-amide], 1.01 nM; for `CC(C)(C)[C@@H](NC(=O)c1c[nH]c2ncc(OC3CCCC3)nc12)C(=O)N1CCC(C#N)CC1` [Example I-92, 2-Cyclopentyloxy-5H-pyrrolo[2,3-b]pyrazine-7-carboxylic acid [(R)-1-(4-cyano-piperidine-1-carbonyl)-2,2-dimethyl-propyl]-amide], 10.9 nM.
For the compound `CC(C)(C)[C@@H](NC(=O)c1c[nH]c2ncc(C3CC3)nc12)C(=O)N1CC[C@H](C#N)C1` [Example I-30, 2-Cyclopropyl-5H-pyrrolo[2,3-b]pyrazine-7-carboxylic acid [(R)-1-((S)-3-cyano-pyrrolidine-1-carbonyl)-2,2-dimethyl-propyl]-amide], the IC50 stood at 1.24 nM.
To `Cn1cc(-c2cnc3[nH]cc(C(=O)N[C@@H](C(=O)N4CC[C@@H](C#N)C4)C(C)(C)C)c3n2)cn1` [Example I-60, 2-(1-Methyl-1H-pyrazol-4-yl)-5H-pyrrolo[2,3-b]pyrazine-7-carboxylic acid [(R)-1-((R)-3-cyano-pyrrolidine-1-carbonyl)-2,2-dimethyl-propyl]-amide] belongs 0.79 nM; to `CC1CCN(C(=O)[C@@H](C)NC(=O)c2c[nH]c3ncc(C4CC4)nc23)C1` (stereo partly drawn) [Example I-15, 2-Cyclopropyl-5H-pyrrolo[2,3-b]pyrazine-7-carboxylic acid [(R)-1-methyl-2-(3-methyl-pyrrolidin-1-yl)-2-oxo-ethyl]-amide], 54.9 nM; to `O=C(N[C@@H](C(=O)N1CC2(COC2)C1)C1CC1)c1c[nH]c2ncc(C3CC3)nc12` [Example I-84, 2-Cyclopropyl-5H-pyrrolo[2,3-b]pyrazine-7-carboxylic acid [(R)-1-cyclopropyl-2-(2-oxa-6-aza-spiro[3.3]hept-6-yl)-2-oxo-ethyl]-amide], 0.75 nM.
For `C[C@@H](NC(=O)c1c[nH]c2ncc(C3CC3)nc12)C(=O)N1CC[C@@H](F)C1` [Example I-23, 2-Cyclopropyl-5H-pyrrolo[2,3-b]pyrazine-7-carboxylic acid [(R)-2-((R)-3-fluoro-pyrrolidin-1-yl)-1-methyl-2-oxo-ethyl]-amide] the value was 9.53 nM; for `CC(C)C[C@@H](NC(=O)c1c[nH]c2ncc(-c3cnn(C)c3)nc12)C(=O)N1CC(C#N)C1` [Example I-69, 2-(1-Methyl-1H-pyrazol-4-yl)-5H-pyrrolo[2,3-b]pyrazine-7-carboxylic acid [(R)-1-(3-cyano-azetidine-1-carbonyl)-3-methyl-butyl]-amide], at most 0.32 nM.
For `CC(C)(C)[C@@H](NC(=O)c1c[nH]c2ncc(-c3cc(OC4CCCC4)ccn3)nc12)C(=O)N1CCC(C#N)CC1` [Example I-130, 2-(4-Cyclopentyloxy-pyridin-2-yl)-5H-pyrrolo[2,3-b]pyrazine-7-carboxylic acid [(R)-1-(4-cyano-piperidine-1-carbonyl)-2,2-dimethyl-propyl]-amide] the value was 113 nM.
For `N#CC1CN(C(=O)[C@H](NC(=O)c2c[nH]c3ncc(-c4ccc(C(F)(F)F)cc4)nc23)C2CC2)C1` [Example I-160, 2-(4-Trifluoromethyl-phenyl)-5H-pyrrolo[2,3-b]pyrazine-7-carboxylic acid [(R)-2-(3-cyano-azetidin-1-yl)-1-cyclopropyl-2-oxo-ethyl]-amide], the IC50 was 0.38 nM.
For the compound `CC(C)(C)[C@@H](NC(=O)c1c[nH]c2ncc(-c3cn(CC4CC4)cn3)nc12)C(=O)N1CCC(C#N)CC1` [Example I-119, 2-(1-Cyclopropylmethyl-1H-imidazol-4-yl)-5H-pyrrolo[2,3-b]pyrazine-7-carboxylic acid [(R)-1-(4-cyano-piperidine-1-carbonyl)-2,2-dimethyl-propyl]-amide], the IC50 was found to be 2.74 nM.
As to `C[C@@H](NC(=O)c1c[nH]c2ncc(-c3cc(OCC4CC4)ccn3)nc12)C(=O)N1CC(C#N)C1` [Example I-131, 2-(4-Cyclopropylmethoxy-pyridin-2-yl)-5H-pyrrolo[2,3-b]pyrazine-7-carboxylic acid [(R)-2-(3-cyano-azetidin-1-yl)-1-methyl-2-oxo-ethyl]-amide], the IC50 came to 2.58 nM.
For `CC(=O)N1CCN(c2ccc(-c3cnc4[nH]cc(C(=O)N[C@@H](C(=O)N5CC(C#N)C5)C5CC5)c4n3)cc2)CC1` [Example I-161, 2-[4-(4-Acetyl-piperazin-1-yl)-phenyl]-5H-pyrrolo[2,3-b]pyrazine-7-carboxylic acid [(R)-2-(3-cyano-azetidin-1-yl)-1-cyclopropyl-2-oxo-ethyl]-amide], the IC50 was at most 0.32 nM.
For `C[C@@H](NC(=O)c1c[nH]c2ncc(C3CC3)nc12)C(=O)N1CCC(O)C1` (stereo partly drawn) [Example I-11, 2-Cyclopropyl-5H-pyrrolo[2,3-b]pyrazine-7-carboxylic acid [(R)-2-(3-hydroxy-pyrrolidin-1-yl)-1-methyl-2-oxo-ethyl]-amide], the IC50 amounted to 91.5 nM.
For `CC(C)(C)[C@@H](NC(=O)c1c[nH]c2ncc(-c3cc(C(F)(F)F)cc(C(F)(F)F)c3)nc12)C(=O)N1CCC(C#N)CC1` [Example I-50, 2-(3,5-Bis-trifluoromethyl-phenyl)-5H-pyrrolo[2,3-b]pyrazine-7-carboxylic acid [(R)-1-(4-cyano-piperidine-1-carbonyl)-2,2-dimethyl-propyl]-amide] the value was 0.4 nM; for `CC(C)[C@@H](NC(=O)c1c[nH]c2ncc(Oc3ccccc3)nc12)C(=O)N1CCCC1` [Example I-18, 2-Phenoxy-5H-pyrrolo[2,3-b]pyrazine-7-carboxylic acid [(R)-2-methyl-1-(pyrrolidine-1-carbonyl)-propyl]-amide], 443 nM; for `N#CC1CCN(C(=O)[C@H](NC(=O)c2c[nH]c3ncc(C4CC4)nc23)C2(C(F)(F)F)CC2)CC1` [Example I-47, 2-Cyclopropyl-5H-pyrrolo[2,3-b]pyrazine-7-carboxylic acid [(R)-2-(4-cyano-piperidin-1-yl)-2-oxo-1-(1-trifluoromethyl-cyclopropyl)-ethyl]-amide], 1.04 nM.

In general, IC50 refers to the concentration needed to halve the response being measured.
